How the values were obtained:
[1] = Mouse liver microsome stability; format: in vitro ADME; details: mouse liver microsomes; read-out: mouse liver microsome stability T1/2
splenic CD11b+ monocytes = test: Monocyte migration assay with astrocyte-conditioned medium; format: cell-based, mouse; details: ACM from astrocytes pre-treated with compound
Method: Generation of astrocyte-conditioned medium (ACM). […] After 24 h, cells were extensively washed with 1×PBS, and incubated with fresh astrocyte complete medium for 48 h. Supernatants were spun down and kept at −80° C. until tested in migration and neurotoxicity assays.
Monocyte Migration Assay. Monocytes were purified from spleens from C57BL/6J mice using CD11b Microbeads (#130-049-601, Miltenyi) following the manufacturer's instructions. 100,000 monocytes were seeded in the upper chamber of a 24-well cell culture transwell, with a 5 μm pore size (#3421, Thermo Fisher Scientific), containing 300 μL of astrocyte-conditioned medium (as detailed earlier) in the bottom chamber. After 3 h incubation at 37° C. in 5% CO2, cells were collected from the lower chamber after shaking and accutase solution incubation (#A6964, Sigma-Aldrich) and quantified by FACS.

[2] = test system: PI3K/AKT/mTOR signaling in astrocytes; test: Western blot of PI3K/AKT/mTOR/NF-κB signaling in primary murine astrocytes; format: cell-based, mouse
Method: Mouse primary astrocyte cultures. […] The cell suspension was then cultured at 37° C. in humidified 5% CO2 on poly-L-Lysine (#P4707, Sigma-Aldrich) pre-coated cell culture flasks. Medium was replaced every 3-5 days. The cells reached confluence after 7-10 days. Microglia were separated by shaking the glia culture at 225 rpm at 37° C. for at least 3 h and washing extensively with 1×PBS. Astrocytes were detached by mild trypsinization with Trypsin-EDTA (0.05%) at 37° C. and plated. […] Both cell types were then cultured separately for downstream procedures. […] Finally, microglia and astrocytes of each condition where magnetically separated as before and lysed for downstream gene expression analysis.
SDS-PAGE and Western blot. […] Membranes were blocked in 10% skimmed milk (#M0841, Lab Scientific) in TBS-T (#IBB-180-2L, Boston BioProducts). Primary antibodies were incubated ON at 4° C. and secondary 30 minutes at RT.
HRP-conjugated blots were developed using the KwikQuant imaging system and KwikQuant western blot detection kit (#R1004 Kindle Biosciences).

[3] = astrocytes activated 30 minutes with TNFα and IL-1β
[4] = astrocytes stimulated with TNFα and IL-1β

Q: Which results are given for O=C(Nc1ccccc1Cl)c1cnc2ccc(C3CCNCC3)cn12 [A38]?
A: half-life [1]: > 5 h; ACM chemoattractant activity (splenic CD11b+ monocytes): reduced ACM neurotoxic and chemoattractant activity; phosphorylation of AKT [2, 3]: suppressed; phosphorylation of p85a, p55a [2, 3]: suppressed; NF-κB activation (p65 phosphorylation and nuclear translocation) [2, 4]: did not suppress NF-κB activation; S6 phosphorylation [2, 4]: suppressed S6 phosphorylation
